The values below are quoted from earlier work in publication PMC8480965 (The Journal of General Physiology, 2021).

Data set [1] relates to Kv2.1. The conditions noted are these: independent binding to each voltage sensor; ref Lee et al., 2003.
The test system of data set [2] is Kv2.1. The note with it: ref Tilley et al., 2019.
For data set [3], the system named is Kv2.1. The conditions noted are these: sphingomyelin converted to ceramide-1-phosphate; ref Milescu et al., 2009.

In the case of Hanatoxin, in data set [1], the “inhibition of total gating charge movement per voltage sensor bound” value is given as about 25%.

On to “guangxitoxin-1E (EGECGGFWWKCGSGKPACCPKYVCSPKWGLCNFPMP; UniProt P84835 1-36, looked up) [GxTX]”, for which, in data set [2] (Kv2.1 in saturating GxTX), the “V1/2 of gating charge–voltage (QV) relation” value is 47 ± 1 mV and the “z of gating charge–voltage (QV) relation” value is 1.6 ± 0.1 e0. Besides, in data set [2] (estimated previously), the “stabilization of voltage sensor in resting conformation with GxTX bound” value is 5,400 fold. In addition, in data set [2], the “deactivation rate of voltage sensors bound by GxTX” value is “faster deactivation rate” and the “mode of action on Kv2.1” value is reported as “partial inverse agonist of Kv2.1”. The “enhancement of GxTX affinity for Kv2.1 by sphingomyelinase D” value in data set [3] is listed as “fourfold”.
